Values joined by “and” are separate entries in the source; they are usually repeats but may differ in a detail not shown here. Equal entries are not always repeated.
The compounds below were run against PCP receptor (assay: PCP receptor binding, ^3 H-MK-801). Settings: Table 4.
Set-up: species or system rat
Experimental: PCP receptor binding assays against ^3 H-MK-801 were conducted as described by Keana et al., Proc. Natl. Acad. Sci (USA) 86: 5631-5635 (1989); Keana et al., Life Sciences 43: 965-973 (1988). For (+) ^3 H-MK-801 binding, 1 nM of radioligand was incubated with about 100 ug of thawed rat brain membrane protein for 4 hr at room temperature. The assays were carried out in 5 mM Tris/acetate and were stopped by rapid filtration through Whatman GF/B or Schleicher & Schuell no. 32 glass fiber filters (presoaked in 0.05% polyethylenamine).

Structure (SMILES) | IC50 [nM]
Clc1cccc(N2CCN(CCc3ccccc3)CC2)c1 [Compound 32, 1-(3'-Chlorophenyl)-4-(2-phenylethyl)piperazine] | > 10000
OC1(c2ccccc2)CCN(CCCc2ccccc2)CC1 [Compound 40, 4-Hydroxy-4-phenyl-1-(3-phenylpropyl)piperidine] | > 10000
C[C@H](Cc1ccccc1)NCCCc1ccc2ccccc2c1 [Compound 12, R(-) N-(1-phenyl-2-propyl)-3-(2-naphthyl)propylamine] | > 10000
C[C@@H](Cc1ccccc1)NCCCCc1ccccc1 [Compound 44, N-(4-phenylbutyl)-1-phenyl-2-propylamine] | > 10000
CC(Cc1ccccc1)NCCCCc1ccccc1 (racemic) [Compound 10, (±) N-(1-phenyl-2-propyl)-4-phenylbutylamine] | > 10000

These compounds were tested against T1, Dopamine D1 receptor (Rattus norvegicus, UniProt P18901) (assay: Dopamine D1 receptor binding, [^3 H]SCH-23390, striatal membranes). Settings: Table 4.
T1 construct: Rat striatal membranes were prepared from frozen tissue; from tissue; host or cells: rat striatum, frozen tissue
Experimental: Dopamine D1 and D2 receptor binding assays were performed as described by Billard et al., Life Sci. 35: 1885-1893 (1984) using [^3 H]SCH-23390 for the D1 receptors and [^3 H]domperidone for the D2 receptors (Baudry et al., Arch. Pharmacol. 308: 231-237 (1979).
Rat striatal membranes were prepared from frozen tissue by Poltron homogenization in 25 volumes of ice cold Tris-EDTA buffer (50 mM Tris-HCl, 1 mM EDTA, pH 7.4 at 4° C.). The homogenate was centrifuged at 48,000× g for 10 min. at 4° C., and the pellet was resuspended in 25 volumes of the same buffer. This suspension was then incubated at 37° C. for 15 min., followed by recentrifugation as before. The resulting pellet was resuspended in 267 volumes of assay buffer (50 mM Tris-HCl, 120 mM NaCl, 5 mM KCl, 2 mM CaCl2, 1 mM MgCl2, pH 7.4 at 37° C.).
The binding assays were conducted with 100 uL of [^3 H]SCH-23390 or [^3 H]domperidone (to give about 1 nM final), 100 uL of buffer or drug solution, and 800 uL of membrane suspension (to give about 250 ug of striatal membrane protein per assay). The tubes were incubated at 37° C. for 60 min. The assays were stopped by rapid filtration over Schleicher & Schuell #32 or Whatman GF/B glass fiber filters (presoaked in 0.5% polyethyleneimine for [^3 H]domperidone binding), followed by two 3 mL washes of ice cold buffer using a Brandel cell harvester. After vigorous shaking, the filter disks were counted at 52% efficiency in 5 mL of Cytoscint (ICN).

T1 sequence (P18901 whole entry): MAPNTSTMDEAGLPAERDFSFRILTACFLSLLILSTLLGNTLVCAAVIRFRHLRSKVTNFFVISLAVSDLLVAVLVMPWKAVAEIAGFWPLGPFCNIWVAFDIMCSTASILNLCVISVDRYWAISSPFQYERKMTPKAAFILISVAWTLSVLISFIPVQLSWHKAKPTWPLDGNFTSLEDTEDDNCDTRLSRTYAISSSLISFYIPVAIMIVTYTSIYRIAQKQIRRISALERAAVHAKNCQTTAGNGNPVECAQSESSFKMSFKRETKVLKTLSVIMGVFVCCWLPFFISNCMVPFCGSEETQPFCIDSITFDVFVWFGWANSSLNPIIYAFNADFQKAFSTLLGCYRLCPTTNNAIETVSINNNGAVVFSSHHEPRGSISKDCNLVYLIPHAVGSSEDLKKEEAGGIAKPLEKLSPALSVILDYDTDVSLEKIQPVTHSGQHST

Structure (SMILES) | IC50 [nM]
OC1(c2ccccc2)CCN(CCCc2ccccc2)CC1 [Compound 40, 4-Hydroxy-4-phenyl-1-(3-phenylpropyl)piperidine] | > 10000

The compounds below were run against T2, sigma-1 binding site (Cavia porcellus, UniProt Q60492) (assay: biochemical). Settings: not given.
T2 construct: Guinea pig whole membrane preparations (P2 microsomal fraction); from tissue; host or cells: guinea pig membranes (P2 microsomal fraction), as described by Weber et al; brain inferred from the sister test b489
Set-up: species or system guinea pig
Experimental: [^3 H]DTG was purchased from DuPont/NEN.
The radioactivity on the filters was determined by scintillation spectrometry at an efficiency of about 50% using Cytoscint (ICN) scintillation fluid.

T2 sequence (Q60492 whole entry): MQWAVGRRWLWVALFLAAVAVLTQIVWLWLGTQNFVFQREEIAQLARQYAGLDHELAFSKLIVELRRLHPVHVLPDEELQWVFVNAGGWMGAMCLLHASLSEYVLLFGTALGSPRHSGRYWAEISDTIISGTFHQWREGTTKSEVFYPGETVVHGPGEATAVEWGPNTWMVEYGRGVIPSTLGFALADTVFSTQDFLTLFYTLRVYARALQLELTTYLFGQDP

Structure (SMILES) | IC50 ratio of sigma-1/sigma-2 (sigma-1 selective compounds)
OC1(c2ccccc2)CCN(CCCc2ccccc2)CC1 [Compound 40, 4-Hydroxy-4-phenyl-1-(3-phenylpropyl)piperidine] | less than 0.1

Same assay, conditions: Example 8

Structure (SMILES) | change in sigma-1 affinity vs. compound No. 1, words
CC(Cc1ccccc1)NCCCCc1ccccc1 (racemic) [Compound 10, (±) N-(1-phenyl-2-propyl)-4-phenylbutylamine] | doubles affinity

Same assay, conditions: SIGMA-1 KI vs. 3H-P[…]

Structure (SMILES) | Ki [nM]
C[C@@H](Cc1ccccc1)NCCCCc1ccccc1 [Compound 44, N-(4-phenylbutyl)-1-phenyl-2-propylamine] | 19.4

Same assay, conditions: Table 10; read-out: SIGMA-1 KI vs. 3H-PENTAZOCINE MEAN

Structure (SMILES) | Ki [nM]
Clc1cccc(N2CCN(CCc3ccccc3)CC2)c1 [Compound 32, 1-(3'-Chlorophenyl)-4-(2-phenylethyl)piperazine] | 14.9
OC1(c2ccccc2)CCN(CCCc2ccccc2)CC1 [Compound 40, 4-Hydroxy-4-phenyl-1-(3-phenylpropyl)piperidine] | 0.68
C[C@H](Cc1ccccc1)NCCCc1ccc2ccccc2c1 [Compound 12, R(-) N-(1-phenyl-2-propyl)-3-(2-naphthyl)propylamine] | 5.73
CC(Cc1ccccc1)NCCCCc1ccccc1 (racemic) [Compound 10, (±) N-(1-phenyl-2-propyl)-4-phenylbutylamine] | 4.68

Same assay, conditions: Table 10; sigma-1/sigma-2

Structure (SMILES) | S1/S2 Ratio
Clc1cccc(N2CCN(CCc3ccccc3)CC2)c1 [Compound 32, 1-(3'-Chlorophenyl)-4-(2-phenylethyl)piperazine] | 0.352
C[C@H](Cc1ccccc1)NCCCc1ccc2ccccc2c1 [Compound 12, R(-) N-(1-phenyl-2-propyl)-3-(2-naphthyl)propylamine] | 0.022
CC(Cc1ccccc1)NCCCCc1ccccc1 (racemic) [Compound 10, (±) N-(1-phenyl-2-propyl)-4-phenylbutylamine] | 0.088

Same assay, conditions: Table 13; read-out: Sigma-1 IC50

Structure (SMILES) | IC50 [nM]
C[C@H](Cc1ccccc1)NCCCc1ccc2ccccc2c1 [Compound 12, R(-) N-(1-phenyl-2-propyl)-3-(2-naphthyl)propylamine] | 5.7

Same assay, conditions: Table 14; read-out: IC50 (nM) at sigma-1

Structure (SMILES) | IC50 [nM]
CC(Cc1ccccc1)NCCCCc1ccccc1 (racemic) [Compound 10, (±) N-(1-phenyl-2-propyl)-4-phenylbutylamine] | 4.7

Same assay, conditions: guinea pig, microsomes

Structure (SMILES) | S1/S2 Ratio
OC1(c2ccccc2)CCN(CCCc2ccccc2)CC1 [Compound 40, 4-Hydroxy-4-phenyl-1-(3-phenylpropyl)piperidine] | 0.074 and 0.096
C[C@@H](Cc1ccccc1)NCCCCc1ccccc1 [Compound 44, N-(4-phenylbutyl)-1-phenyl-2-propylamine] | .543

Same assay, conditions: less than about 0.1; see Table 10

Structure (SMILES) | IC50 ratio of sigma-1/sigma-2 (sigma-1 selective compounds)
C[C@H](Cc1ccccc1)NCCCc1ccc2ccccc2c1 [Compound 12, R(-) N-(1-phenyl-2-propyl)-3-(2-naphthyl)propylamine] | less than 0.1
CC(Cc1ccccc1)NCCCCc1ccccc1 (racemic) [Compound 10, (±) N-(1-phenyl-2-propyl)-4-phenylbutylamine] | less than 0.1

These compounds were tested against T3, sigma-2 binding site (Cavia porcellus, UniProt H0V073) (assay: biochemical). Settings: Example 9.
T3 construct: Guinea pig whole membrane preparations (P2 microsomal fraction); from tissue; host or cells: guinea pig membranes (P2 microsomal fraction), as described by Weber et al; brain inferred from the sister test b489
T3 sequence (H0V073 1-176): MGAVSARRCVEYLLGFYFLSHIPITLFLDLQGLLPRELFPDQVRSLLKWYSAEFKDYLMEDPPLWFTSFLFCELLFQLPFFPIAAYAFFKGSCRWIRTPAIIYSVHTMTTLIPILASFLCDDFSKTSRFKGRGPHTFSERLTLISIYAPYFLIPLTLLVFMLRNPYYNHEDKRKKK
Set-up: species or system guinea pig
Experimental: For the standard equilibrium assay, the mixtures were incubated for 30 min. at room temperature, then filtered and the radioactivity determined as described above.

Structure (SMILES) | reduction in sigma-2 affinity vs. cmp. #1
C[C@H](Cc1ccccc1)NCCCc1ccc2ccccc2c1 [Compound 12, R(-) N-(1-phenyl-2-propyl)-3-(2-naphthyl)propylamine] | about 4 fold

Same assay, conditions: SIGMA-2 KI vs. 3H-DTG + P[…]

Structure (SMILES) | Ki [nM]
C[C@@H](Cc1ccccc1)NCCCCc1ccccc1 [Compound 44, N-(4-phenylbutyl)-1-phenyl-2-propylamine] | 35.8

Same assay, conditions: Table 10; read-out: SIGMA-2 KI vs. 3H-DTG + PENTAZOCINE MEAN

Structure (SMILES) | Ki
Clc1cccc(N2CCN(CCc3ccccc3)CC2)c1 [Compound 32, 1-(3'-Chlorophenyl)-4-(2-phenylethyl)piperazine] | 42.4 nM
OC1(c2ccccc2)CCN(CCCc2ccccc2)CC1 [Compound 40, 4-Hydroxy-4-phenyl-1-(3-phenylpropyl)piperidine] | 9.2 nM and 7.03 nM
C[C@H](Cc1ccccc1)NCCCc1ccc2ccccc2c1 [Compound 12, R(-) N-(1-phenyl-2-propyl)-3-(2-naphthyl)propylamine] | 258 nM
CC(Cc1ccccc1)NCCCCc1ccccc1 (racemic) [Compound 10, (±) N-(1-phenyl-2-propyl)-4-phenylbutylamine] | 53.2 nM

What follows are compounds tested against T4, 5-HT1A receptor (Rattus norvegicus, UniProt P19327) (assay: biochemical). Settings: not given.
T4 sequence (P19327 1-422): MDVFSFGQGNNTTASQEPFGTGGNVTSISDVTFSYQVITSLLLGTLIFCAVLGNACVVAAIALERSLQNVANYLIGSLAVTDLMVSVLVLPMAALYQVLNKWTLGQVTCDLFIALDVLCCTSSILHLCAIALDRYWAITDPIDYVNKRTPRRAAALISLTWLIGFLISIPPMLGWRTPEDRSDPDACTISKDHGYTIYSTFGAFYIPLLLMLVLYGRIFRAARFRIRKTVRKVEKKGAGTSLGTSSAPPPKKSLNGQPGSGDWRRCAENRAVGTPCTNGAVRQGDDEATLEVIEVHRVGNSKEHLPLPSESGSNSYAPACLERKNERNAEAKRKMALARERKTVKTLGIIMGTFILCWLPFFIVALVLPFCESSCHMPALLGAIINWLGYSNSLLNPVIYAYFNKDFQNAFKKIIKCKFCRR
Assay type: binding
Set-up: 47: 529-540 (1986); from tissue; host or cells: brain tissue, inferred from the cited method (rat frontal cortex)
Experimental: Further sigma receptor binding assays against [^3 H]DTG and 5HT-1A binding assays were conducted according to the procedure outlined in the previous examples.

Structure (SMILES) | Ratio 5-HT1A /σ | IC50 [nM]
OC1(c2ccccc2)CCN(CCCc2ccccc2)CC1 [Compound 40, 4-Hydroxy-4-phenyl-1-(3-phenylpropyl)piperidine] | 970 | 
C[C@@H](Cc1ccccc1)NCCCCc1ccccc1 [Compound 44, N-(4-phenylbutyl)-1-phenyl-2-propylamine] | 40 | 278

Same assay, conditions: Table 5

Structure (SMILES) | Ratio 5-HT1A /σ
Clc1cccc(N2CCN(CCc3ccccc3)CC2)c1 [Compound 32, 1-(3'-Chlorophenyl)-4-(2-phenylethyl)piperazine] | .80
C[C@H](Cc1ccccc1)NCCCc1ccc2ccccc2c1 [Compound 12, R(-) N-(1-phenyl-2-propyl)-3-(2-naphthyl)propylamine] | 56
CC(Cc1ccccc1)NCCCCc1ccccc1 (racemic) [Compound 10, (±) N-(1-phenyl-2-propyl)-4-phenylbutylamine] | 22

Same assay, conditions: Table 5; read-out: 5-HT1A IC50

Structure (SMILES) | IC50 [nM]
Clc1cccc(N2CCN(CCc3ccccc3)CC2)c1 [Compound 32, 1-(3'-Chlorophenyl)-4-(2-phenylethyl)piperazine] | 8.73
OC1(c2ccccc2)CCN(CCCc2ccccc2)CC1 [Compound 40, 4-Hydroxy-4-phenyl-1-(3-phenylpropyl)piperidine] | 2960
C[C@H](Cc1ccccc1)NCCCc1ccc2ccccc2c1 [Compound 12, R(-) N-(1-phenyl-2-propyl)-3-(2-naphthyl)propylamine] | 132
CC(Cc1ccccc1)NCCCCc1ccccc1 (racemic) [Compound 10, (±) N-(1-phenyl-2-propyl)-4-phenylbutylamine] | 212

Source: US6057371A, “Sigma receptor ligands and the use thereof” (Virginia Commonwealth University, priority 1992, dated 2000)
